According to PubChem BioAssay AID1963980 (Molecular Pharmacology Branch, DTP, NCI, 2024):

Tested on: 475296-252-R-J1-PDC spheroid viability
Test: Anticancer human tumor 475296-252-R-J1-PDC patient-derived rectal carcinoma cell line growth inhibition [PI3K]
Details: spheroids with HUVEC and MSC; for IC50: curve of first compound; for viability, T/C: stronger effect = lower value
Outline: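 Combination activity was assessed by viability in multicellular tumor spheroids carrying HUVEC and MSC components. Agents were tested with PI3K inhibitors from a Cmax-based top dose (or 10 microM) downward in half-log increments.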
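Note: spheroids exposed to agents for seven days before readout.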

CNC(=O)c1ccc(N2C(=S)N(c3ccc(C#N)c(C(F)(F)F)c3)C(=O)C2(C)C)cc1F + COc1c(OCCCN2CCOCC2)ccc2c3n(c(=NC(=O)c4cnc(N)nc4)nc12)CCN3
IC50 (second compound 0.00316 µM): > 10 µM
IC50 (second compound 0.01 µM): > 10 µM
IC50 (second compound 0.0316 µM): > 10 µM
IC50 (second compound 0.1 µM): > 10 µM
IC50 (second compound 0.316 µM): > 10 µM
IC50 (second compound 1 µM): > 10 µM
viability, T/C (second compound 0.00316 µM, first compound 0.0316 µM): 99.1%
viability, T/C (second compound 0.00316 µM, first compound 0.1 µM): 107%
viability, T/C (second compound 0.00316 µM, first compound 0.316 µM): 101%
viability, T/C (second compound 0.00316 µM, first compound 1 µM): 95.8%
viability, T/C (second compound 0.00316 µM, first compound 3.16 µM): 103%
viability, T/C (second compound 0.00316 µM, first compound 10 µM): 108%
viability, T/C (second compound 0.01 µM, first compound 0.0316 µM): 96.6%
viability, T/C (second compound 0.01 µM, first compound 0.1 µM): 94.7%
viability, T/C (second compound 0.01 µM, first compound 0.316 µM): 102%
viability, T/C (second compound 0.01 µM, first compound 1 µM): 97.5%
viability, T/C (second compound 0.01 µM, first compound 3.16 µM): 100%
viability, T/C (second compound 0.01 µM, first compound 10 µM): 96.2%
viability, T/C (second compound 0.0316 µM, first compound 0.0316 µM): 76%
viability, T/C (second compound 0.0316 µM, first compound 0.1 µM): 88.5%
viability, T/C (second compound 0.0316 µM, first compound 0.316 µM): 89.7%
viability, T/C (second compound 0.0316 µM, first compound 1 µM): 98.1%
viability, T/C (second compound 0.0316 µM, first compound 3.16 µM): 91.9%
viability, T/C (second compound 0.0316 µM, first compound 10 µM): 107%
viability, T/C (second compound 0.1 µM, first compound 0.0316 µM): 75.7%
viability, T/C (second compound 0.1 µM, first compound 0.1 µM): 68.5%
viability, T/C (second compound 0.1 µM, first compound 0.316 µM): 83.1%
viability, T/C (second compound 0.1 µM, first compound 1 µM): 81%
viability, T/C (second compound 0.1 µM, first compound 3.16 µM): 89.4%
viability, T/C (second compound 0.1 µM, first compound 10 µM): 87.3%
viability, T/C (second compound 0.316 µM, first compound 0.0316 µM): 76.6%
viability, T/C (second compound 0.316 µM, first compound 0.1 µM): 68.1%
viability, T/C (second compound 0.316 µM, first compound 0.316 µM): 71.7%
viability, T/C (second compound 0.316 µM, first compound 1 µM): 80.9%
viability, T/C (second compound 0.316 µM, first compound 3.16 µM): 70.5%
viability, T/C (second compound 0.316 µM, first compound 10 µM): 72%
viability, T/C (second compound 1 µM, first compound 0.0316 µM): 72.5%
viability, T/C (second compound 1 µM, first compound 0.1 µM): 72%
viability, T/C (second compound 1 µM, first compound 0.316 µM): 50.6%
viability, T/C (second compound 1 µM, first compound 1 µM): 60.1%
viability, T/C (second compound 1 µM, first compound 3.16 µM): 63.5%
viability, T/C (second compound 1 µM, first compound 10 µM): 61.5%

Cn1cnc2c(F)c(Nc3ccc(Br)cc3Cl)c(C(=O)NOCCO)cc21 + COc1c(OCCCN2CCOCC2)ccc2c3n(c(=NC(=O)c4cnc(N)nc4)nc12)CCN3
IC50 (second compound 0.00316 µM): 2.05 µM
IC50 (second compound 0.01 µM): 0.469 µM
IC50 (second compound 0.0316 µM): 0.162 µM
IC50 (second compound 0.1 µM): 0.0942 µM
IC50 (second compound 0.316 µM): 0.0271 µM
IC50 (second compound 1 µM): < 0.00949 µM
viability, T/C (second compound 0.00316 µM, first compound 0.00949 µM): 88%
viability, T/C (second compound 0.00316 µM, first compound 0.03 µM): 75.5%
viability, T/C (second compound 0.00316 µM, first compound 0.0949 µM): 73.4%
viability, T/C (second compound 0.00316 µM, first compound 0.3 µM): 60.6%
viability, T/C (second compound 0.00316 µM, first compound 0.949 µM): 62.5%
viability, T/C (second compound 0.00316 µM, first compound 3 µM): 44.2%
viability, T/C (second compound 0.01 µM, first compound 0.00949 µM): 90.6%
viability, T/C (second compound 0.01 µM, first compound 0.03 µM): 90%
viability, T/C (second compound 0.01 µM, first compound 0.0949 µM): 63%
viability, T/C (second compound 0.01 µM, first compound 0.3 µM): 53.3%
viability, T/C (second compound 0.01 µM, first compound 0.949 µM): 53.8%
viability, T/C (second compound 0.01 µM, first compound 3 µM): 36.9%
viability, T/C (second compound 0.0316 µM, first compound 0.00949 µM): 84.1%
viability, T/C (second compound 0.0316 µM, first compound 0.03 µM): 63.3%
viability, T/C (second compound 0.0316 µM, first compound 0.0949 µM): 56.3%
viability, T/C (second compound 0.0316 µM, first compound 0.3 µM): 42.6%
viability, T/C (second compound 0.0316 µM, first compound 0.949 µM): 37%
viability, T/C (second compound 0.0316 µM, first compound 3 µM): 18.8%
viability, T/C (second compound 0.1 µM, first compound 0.00949 µM): 65%
viability, T/C (second compound 0.1 µM, first compound 0.03 µM): 67.6%
viability, T/C (second compound 0.1 µM, first compound 0.0949 µM): 48.7%
viability, T/C (second compound 0.1 µM, first compound 0.3 µM): 25.6%
viability, T/C (second compound 0.1 µM, first compound 0.949 µM): 16.5%
viability, T/C (second compound 0.1 µM, first compound 3 µM): 6.68%
viability, T/C (second compound 0.316 µM, first compound 0.00949 µM): 55.9%
viability, T/C (second compound 0.316 µM, first compound 0.03 µM): 49.8%
viability, T/C (second compound 0.316 µM, first compound 0.0949 µM): 29.4%
viability, T/C (second compound 0.316 µM, first compound 0.3 µM): 10.7%
viability, T/C (second compound 0.316 µM, first compound 0.949 µM): 5.48%
viability, T/C (second compound 0.316 µM, first compound 3 µM): 2.56%
viability, T/C (second compound 1 µM, first compound 0.00949 µM): 47.1%
viability, T/C (second compound 1 µM, first compound 0.03 µM): 41.5%
viability, T/C (second compound 1 µM, first compound 0.0949 µM): 22.2%
viability, T/C (second compound 1 µM, first compound 0.3 µM): 9.1%
viability, T/C (second compound 1 µM, first compound 0.949 µM): 5.23%
viability, T/C (second compound 1 µM, first compound 3 µM): 3.35%
